Results taken from patent US20080293099A1, “Lignan Glycosidase and Utilization of the Same” (priority 2004, published 2008).

Key:
[1] = tested on: SrSiGT8 recombinant protein; assay: lignan glycosidation activity assay with purified His-SrSiGT8 recombinant protein (HPLC analysis); type: biochemical, Sesamum radiatum; conditions: Ni column purified, dialyzed His-SrSiGT8, UDP-glucose, 30° C. for an hour
Experimental: About 1.4 kb DNA fragment containing the full-length SrSiGT8 was excised from pSPB2656 with BamHI/KpnI and then ligated to the BamHI/KpnI site of pQE30 vector (QIAGEN), which was an expression vector for Escherichia coli, to obtain SrSiGT8/pQE30 (pSPB2657). This pSPB2657 expresses recombinant protein (His-SrSiGT8) with His tag consisting of 6 histidine residues fused to SrSiGT8 at the N terminus.
Escherichia coli transformed with pSPB2657 was incubated as in EXAMPLE 7 to express a recombinant protein. The following experiment was all carried out on ice or at 4° C., unless otherwise indicated.
After the cells were dissolved in 5 ml of lysis buffer (20 mM sodium phosphate buffer, 30 mM imidazole, 500 mM NaCl, 5 mM β-mercaptoethanol and 100 μM APSMF) per 1 g, the cells were lysed by ultrasonication, followed by centrifugation at 4000 rpm for 10 minutes. The supernatant obtained was recovered as the crude enzyme solution.
Next, the His-SrSiGT8 recombinant protein was purified through a Ni column. Chelating Sepharose FF resin (Amersham Bioscience) was packed in the column and 0.1M NiSO4 in a volume equal to the resin was added to the resin. Subsequently, the column was washed with water in a volume twice the volume of the resin and then with 20% ethanol in a volume 3 times the volume of the resin.
Then, the column was equilibrated with a lysis buffer in a volume 5 times the volume of the resin and a sample obtained by diluting 5 mL of the crude enzyme solution described above with the lysis buffer to 10-fold was loaded on the column. After the sample naturally dropped by the gravity, the sample was washed 3 times with the lysis buffer in a volume 5 times the volume of the resin and then eluted using 5 ml of an elution buffer (20 mM sodium phosphate buffer, 500 mM imidazole, 500 mM NaCl, 5 mM β-mercaptoethanol and 100 μM APSMF) […]
To 300 μl of the dialyzed sample, 20 μl of the substrate solution (1 mg/ml) and 3 μl of 20 mM UDP-glucose were added to react at 30° C. for an hour. The reaction product was analyzed in a manner similar to EXAMPLE 8.

[2] = tested on: SiGT8 recombinant protein; assay: lignan glycosidation activity assay with SiGT8 recombinant protein (HPLC analysis of the product); type: biochemical, Sesamum indicum; conditions: crude enzyme solution expressed in Escherichia coli, UDP-glucose, 30° C. for an hour, absorption at 287 nm
Experimental: (§1) Escherichia coli JM109 (TOYOBO) was transformed with Escherichia coli expression vectors pSPB2637, pSPB2642, pSPB2645, pSPB2639 and pSPB2640 prepared in EXAMPLE 6, and preincubated at 37° C. overnight in LB medium supplemented with ampicillin in final concentration of 20 μg/ml. A part of the preincubation culture was added to M9 medium (10 ml) containing 50 μg/ml of ampicillin and 0.5% Casamino acid, and shake cultured to reach A600=0.6-1.0. The composition of M9 medium is as follows: 1×M9 salt, 1 mM MgSO4, 0.2% glucose and 0.001% thiamine hydrochloride. The composition of 10×M9 medium is as follows: a 500 ml aqueous solution containing 30 g of Na2HPO4, 15 g of KH2PO4, 2.5 g of NaCl and 5 g of NH4Cl. Next, IPTG (isopropyl-β-D-thiogalactopyranoside) in a final concentration of 0.5 mM was added to the culture. After further shake culture at 30° C. overnight, centrifugation was performed at 3000 rpm at 4° C. for 10 minutes to collect the cells. […]
(§2) Pinoresinol, piperitol or sesaminol was dissolved in a small quantity of DMSO and further dissolved in 70% ethanol to prepare a substrate solution (1 mg/ml). […]
(§3) The enzyme reaction was terminated by adding 100% acetonitrile (250 μl) containing 0.1% TFA (trifluoroacetic acid) to the reaction tube. […] The resulting supernatant was washed through a filter (pore size of […], 4 mm Millex-LH, Millipore) and then analyzed using high performance liquid chromatography (hereinafter HPLC). […]
Liquid chromatography (Lc-2010c (Shimadzu Corporation)) was performed using a C-30 column (Nomura Chemical, C30-UG-5, 4.6 mm×150 mm). […] Absorption was monitored at 287 nm to detect the compound contained in a sample. The spectra between 190 nm and 400 nm for each peak of the compound were measured using SPD-10AV (Shimadzu Corporation) to detect a substance having two absorption maxima (230 nm and 280 nm) characteristic of lignans. Under the conditions, authentic pinoresinol is detected at about 8.4 minutes, authentic piperitol at about 12.8 minutes and authentic sesaminol at about 13.8 minutes (FIGS. 2 and 3).

[3] = tested on: SaSiGT8 recombinant protein; assay: lignan glycosidation activity assay with SaSiGT8 recombinant protein (SaLGT1) (HPLC analysis); type: biochemical, S. alatum; conditions: recombinant protein expressed in Escherichia coli as in EXAMPLE 11
Excerpt: The fragment containing ORF of SaSiGT8 was excised from pSPB2697 with BamHI and KpnI and inserted into the BamHI and KpnI sites of Escherichia coli expression vector pQE30 to give the expression vector pSPB2698. The recombinant SaSiGT8 protein (SaLGT1) was expressed as in EXAMPLE 11 to confirm that the protein had the lignan glycosidation activity. It was also confirmed by SDS-PAGE that the recombinant SaSiGT8 protein (ca. 60 kDa) was present in the lysis supernatant of transgenic Escherichia coli expressing the SaSiGT8 gene (FIG. 9).

[4] = tested on: SiGT10 recombinant protein; assay: lignan glycosidation activity assay with SiGT10 recombinant protein (HPLC analysis of the product); type: biochemical, Sesamum indicum; conditions: crude enzyme solution expressed in Escherichia coli, UDP-glucose, 30° C. for an hour, absorption at 287 nm
Experimental: as §1, with “NH4Cl.” for “NH4Cl. Next, IPTG (isopropyl-β-D-thiogalactopyranoside) in a final concentration of 0.5 mM was added to the culture. After further shake culture at 30° C. overnight, centrifugation was performed at 3000 rpm at 4° C. for 10 minutes to collect the cells.”
as §2, §3
Liquid chromatography (Lc-2010c (Shimadzu Corporation)) was performed using a C-30 column (Nomura Chemical, C30-UG-5, 4.6 mm×150 mm). […] Absorption was monitored at 287 nm to detect the compound contained in a sample. […]

Row | Compound | glycosidation of the lignan substrate by SrSiGT8 (new product peak with lignan spectrum in HPLC) [1] | glycosidation of the lignan substrate by SiGT8 (new product peak with lignan spectrum in HPLC) [2] | glycosidation of the lignan substrate by SaSiGT8 (monoglucoside formed, HPLC) [3] | glycosidation of the lignan substrate by SiGT10 (new product peak with lignan spectrum in HPLC) [4]
1 | COc1cc([C@@H]2OC[C@@H]3[C@H]2CO[C@H]3c2ccc3c(c2)OCO3)ccc1O [piperitol] | peak E having a new spectrum for lignan showing the retention time of about 7.4 minutes was detected | peak D having the spectrum of lignan (retention time of about 7.4 minutes) was newly obtained | produced the respective monoglucosides | 
2 | Oc1cc2c(cc1[C@H]1OC[C@H]3[C@@H]1CO[C@@H]3c1ccc3c(c1)OCO3)OCO2 [sesaminol] | peak F having a new spectrum for lignan showing the retention time of about 8.2 minutes was detected | peak B having the spectrum of lignan (retention time of about 8.2 minutes) was newly obtained | produced the respective monoglucosides | peak C having the spectrum of lignan (retention time of about 8.2 minutes) was newly obtained
3 | pinoresinol | any peak with a spectrum for any new lignan was detected | peak A having the spectrum of lignan (retention time of about 4.0 minutes) was newly obtained | produced the respective monoglucosides | any new product was not observed
